Experiments:
[1] = system: duck salad; experiment: Test B flood test duck salad; assay type: in vivo, Heteranthera limosa; details: Pre-emergence
Method in brief: (§1)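 Read-out is a visual response score from 0 (no effect) to 10 (complete control), assigned by comparison with untreated controls. Treatment was applied at the 2-leaf stage, and plants stayed in the greenhouse for twelve to sixteen days before scoring.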

[2] = system: wheat; experiment: Test B pre/postemergence wheat; assay type: in vivo, Triticum aestivum
Method in brief: (§2)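 Response is a visual 0-to-10 score relative to untreated plants, where 0 means no effect and 10 means complete control, taken twelve to sixteen days after application. Treatments went onto soil at planting and onto foliage of 1- to 4-leaf plants, using a surfactant-containing non-phytotoxic solvent.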

[3] = system: wild oat; experiment: Test B pre/postemergence wild oat; assay type: in vivo, Avena fatua
Method in brief: as §2

[4] = system: rice; experiment: Test B flood test rice; assay type: in vivo, Oryza sativa; details: Pre-emergence
Method in brief: as §1

[5] = system: morningglory; experiment: Test B pre/postemergence morningglory; assay type: in vivo, Ipomoea hederacea
Method in brief: as §2

[6] = system: corn; experiment: Test B pre/postemergence corn; assay type: in vivo, Zea mays
Method in brief: as §2

[7] = system: purple nutsedge; experiment: Test B pre/postemergence purple nutsedge; assay type: in vivo, Cyperus rotundus
Method in brief: as §2

[8] = system: surinam grass; experiment: Test B pre/postemergence surinam grass; assay type: in vivo, Brachiaria decumbens
Method in brief: as §2

[9] = system: bamyardgrass; experiment: Test B flood test barnyardgrass; assay type: in vivo, Echinochloa crus-galli; details: Pre-emergence
Method in brief: as §1

[10] = system: pigweed; experiment: Test B pre/postemergence pigweed; assay type: in vivo, Amaranthus retroflexus
Method in brief: as §2

[11] = system: blackgrass; experiment: Test B pre/postemergence blackgrass; assay type: in vivo, Alopecurus myosuroides
Method in brief: as §2

[12] = system: cocklebur; experiment: Test B pre/postemergence cocklebur; assay type: in vivo, Xanthium strumarium
Method in brief: as §2

[13] = system: bedstraw; experiment: Test B pre/postemergence bedstraw; assay type: in vivo, Galium aparine
Method in brief: as §2

[14] = system: smallflower flatsedge; experiment: Test B flood test smallflower flatsedge; assay type: in vivo, Cyperus difformis; details: Pre-emergence
Method in brief: as §1

[15] = system: velvetleaf; experiment: Test B pre/postemergence velvetleaf; assay type: in vivo, Abutilon theophrasti
Method in brief: as §2

[16] = system: rape; experiment: Test B pre/postemergence rape; assay type: in vivo, Brassica napus
Method in brief: as §2

[17] = Rate 1000 g/ha, scale 0 to 10 (0 no effect, 10 complete control)
[18] = Rate 125 g/ha, flood test species, scale 0 to 10 where 0 is no effect and 10 is complete control
[19] = Rate 250 g/ha, flood-test species, scale 0 to 10, 0 is no effect, 10 is complete control
[20] = Rate 500 g/ha, flood test species, scale 0 to 10 (0 no effect, 10 complete control)
[21] = Postemergence, Rate 1000 g/ha, scale 0 to 10 (0 no effect, 10 complete control)
[22] = Preemergence, Rate 250 g/ha, scale of 0 to 10 where 0 is no effect and 10 is complete control
[23] = Preemergence, Rate 500 g/ha, scale of 0 to 10 where 0 is no effect and 10 is complete control
[24] = Rate 125 g/ha, Preemergence, scale of 0 to 10 where 0 is no effect and 10 is complete control
[25] = Rate 500 g/ha, Postemergence, scale 0 to 10, 0 no effect, 10 complete control
[26] = Rate 1000 g/ha, Preemergence, scale 0 to 10 (0 no effect, 10 complete control)
[27] = Rate 125 g/ha, Postemergence, scale 0 to 10

Structure (SMILES): CCOC(=O)C(C)N(C(=O)n1oc(=O)n(-c2ccccc2C)c1=O)c1ccc(F)cc1 (stereo not drawn) [Compound 247]
- Ducksalad plant response rating [1, 17]: 0
- Ducksalad plant response rating [1, 18]: 0
- Ducksalad plant response rating [1, 19]: 0
- Ducksalad plant response rating [1, 20]: 0
- Wheat plant response rating [2, 21]: 0
- Wheat plant response rating [2, 22]: 0
- Plant response rating, Wheat [2, 23]: 0
- Wheat plant response rating [2, 24]: 0
- Wheat plant response rating [2, 25]: 0
- Plant response rating, Wheat [2, 26]: 0
- Wild oats plant response rating [3, 21]: 0
- Wild oats plant response rating [3, 22]: 0
- Plant response rating, Wild oats [3, 23]: 0
- Wild oats plant response rating [3, 24]: 0
- Wild oats plant response rating [3, 25]: 0
- Plant response rating, Wild oats [3, 26]: 0
- Rice plant response rating [4, 17]: 0
- Rice plant response rating [4, 18]: 0
- Rice plant response rating [4, 19]: 0
- Rice plant response rating [4, 20]: 0
- Morningglory plant response rating [5, 21]: 4
- Morningglory plant response rating [5, 22]: 0
- Plant response rating, Morningglory [5, 23]: 0
- Morningglory plant response rating [5, 24]: 0
- Plant response rating (0 to 10; 0 is no effect, 10 is complete control), Morningglory ([5]; Rate 250 g/ha, Postemergence): 2
- Morningglory plant response rating [5, 25]: 2
- Plant response rating, Morningglory [5, 26]: 0
- Corn plant response rating [6, 21]: 0
- Corn plant response rating [6, 22]: 0
- Plant response rating, Corn [6, 23]: 0
- Corn plant response rating [6, 27]: 0
- Corn plant response rating [6, 24]: 0
- Plant response rating (0 to 10; 0 is no effect, 10 is complete control), Corn ([6]; Rate 250 g/ha, Postemergence): 0
- Corn plant response rating [6, 25]: 0
- Plant response rating, Corn [6, 26]: 0
- Nutsedge plant response rating [7, 21]: 0
- Nutsedge plant response rating [7, 22]: 0
- Plant response rating (0 to 10; 0 is no effect, 10 is complete control), Nutsedge ([7]; Rate 250 g/ha, Postemergence): 0
- Nutsedge plant response rating [7, 25]: 0
- B. signalgrass plant response rating [8, 21]: 0
- B. signalgrass plant response rating [8, 22]: 0
- Plant response rating, B. signalgrass [8, 23]: 0
- B. signalgrass plant response rating ([8]; Rate 125 g/ha, Postemergence, scale 0 (no effect) to 10 (complete control)): 0
- B. signalgrass plant response rating [8, 24]: 0
- Plant response rating (0 to 10; 0 is no effect, 10 is complete control), B. signalgrass ([8]; Rate 250 g/ha, Postemergence): 0
- B. signalgrass plant response rating [8, 25]: 0
- Plant response rating, B. signalgrass [8, 26]: 0
- Barnyardgrass plant response rating [9, 17]: 0
- Barnyardgrass plant response rating [9, 18]: 0
- Barnyardgrass plant response rating [9, 19]: 0
- Barnyardgrass plant response rating [9, 20]: 0
- Redroot pigweed plant response rating [10, 21]: 0
- Redroot pigweed plant response rating [10, 22]: 0
- Plant response rating, Redroot pigweed [10, 23]: 0
- Redroot pigweed plant response rating [10, 24]: 0
- Plant response rating (0 to 10; 0 is no effect, 10 is complete control), Redroot pigweed ([10]; Rate 250 g/ha, Postemergence): 0
- Redroot pigweed plant response rating [10, 25]: 0
- Plant response rating, Redroot pigweed [10, 26]: 0
- Blackgrass plant response rating [11, 21]: 0
- Blackgrass plant response rating [11, 22]: 0
- Plant response rating, Blackgrass [11, 23]: 0
- Blackgrass plant response rating [11, 27]: 0
- Blackgrass plant response rating [11, 24]: 0
- Plant response rating (0 to 10; 0 is no effect, 10 is complete control), Blackgrass ([11]; Rate 250 g/ha, Postemergence): 0
- Blackgrass plant response rating [11, 25]: 0
- Plant response rating, Blackgrass [11, 26]: 0
- Cocklebur plant response rating [12, 21]: 0
- Cocklebur plant response rating [12, 22]: 0
- Plant response rating, Cocklebur [12, 23]: 0
- Cocklebur plant response rating [12, 27]: 0
- Cocklebur plant response rating [12, 24]: 0
- Plant response rating (0 to 10; 0 is no effect, 10 is complete control), Cocklebur ([12]; Rate 250 g/ha, Postemergence): 0
- Cocklebur plant response rating [12, 25]: 0
- Plant response rating, Cocklebur [12, 26]: 0
- Bedstraw plant response rating [13, 21]: 0
- Bedstraw plant response rating [13, 22]: 0
- Plant response rating, Bedstraw [13, 23]: 0
- Bedstraw plant response rating [13, 27]: 0
- Bedstraw plant response rating [13, 24]: 0
- Plant response rating (0 to 10; 0 is no effect, 10 is complete control), Bedstraw ([13]; Rate 250 g/ha, Postemergence): 0
- Bedstraw plant response rating [13, 25]: 0
- Plant response rating, Bedstraw [13, 26]: 0
- S. Flatsedge plant response rating [14, 17]: 0
- S. Flatsedge plant response rating [14, 18]: 0
- S. Flatsedge plant response rating [14, 19]: 0
- S. Flatsedge plant response rating [14, 20]: 0
- Velvetleaf plant response rating [15, 21]: 0
- Velvetleaf plant response rating [15, 22]: 0
- Plant response rating, Velvetleaf [15, 23]: 0
- Velvetleaf plant response rating [15, 24]: 0
- Velvetleaf plant response rating [15, 25]: 0
- Plant response rating, Velvetleaf [15, 26]: 0
- Rape plant response rating [16, 21]: 0
- Rape plant response rating [16, 22]: 0
- Plant response rating, Rape [16, 23]: 0
- Rape plant response rating [16, 24]: 0
- Plant response rating (0 to 10; 0 is no effect, 10 is complete control), Rape ([16]; Rate 250 g/ha, Postemergence): 0
- Rape plant response rating [16, 25]: 0
- Plant response rating, Rape [16, 26]: 0
